The experiment has as its system Vif-mediated depletion of APOBEC3G-HA in 293T cells. The experiment is described as follows: Proteasome inhibitor panel in 293T cells transiently transfected with APOBEC3G-HA and Vif, immunoblot. The following applies: 12.5 μM, 15 hours. It is filed as cell-based. As for the experimental part: 293T cells were transfected with the indicated amounts of expression vector DNA using the calcium phosphate method. Lysis buffers used for immunoblotting were (1) 100-400 mM NaCl, 50 mM Hepes, 0.2% NP40, 0-5 mM EDTA, 0.1 mM PMSF, plus complete protease inhibitor cocktail (Roche)(1 tablet/50 ml buffer) or (2) 50 mM Hepes, pH 7.2, 135 mM NaCl, 1% Triton X-100, 0.5% deoxycholate, 10% glycerol, 1 mM EDTA, 1× protease inhibitor cocktail (Calbiochem). Samples were analyzed using standard SDS-PAGE techniques.
For the proteasome inhibitor experiments in transiently transfected cells, 293T cells were transiently transfected with 0.1 μg of APOBEC3G-HA DNA, 2 μg of control vector DNA and 2 μg of either pcDNA3.1 Vif DNA vector or an additional 2 μg of control vector DNA. Twenty-four hours after transfection, the cells were treated with the indicated inhibitor and harvested 15 hours later. For the proteasome inhibitor experiments using infected H9 cells, H9 cells were infected by spinoculation as described above. Forty-four hours after infection, the cells were treated for 16 hours with either dimethylsulfoxide (DMSO) (0.1%) or 0.25 μM epoxomicin. All of the inhibitors (ALLN, MG132, epoxomicin, Calpain Inhibitor III, and clasto-Lactacystin-β-Lactone) were purchased from CalBiochem and were dissolved in DMSO.
To confirm this finding in a different system, a similar experiment was performed using 293T cells transiently transfected with an APOBEC3G-HA expression vector and either a Vif expression vector or a control vector. Twenty-four hours after transfection the cells were treated with a panel of different proteasome inhibitors for a 15-hour period. It was observed that the broadly acting proteasome inhibitors MG132 (12.5 μM) and ALLN (25 μM) as well as the more specific proteasome inhibitor clasto-Lactacystin-β-Lactone ([…], 20 μM) enhanced the levels of APOBEC3G-HA in the presence of Vif when compared to the diluent control sample (0.1% DMSO) (FIG. 8C, lanes 7 through 12).
FIG. 8A-C. Vif shortens the half-life of APOBEC3G, and proteasome inhibitors partially block the intracellular depletion of APOBEC3G-HA. (A) Pulse-Chase Radiolabeling. HEK 293 cells transiently transfected with APOBEC3G-HA and Vif or control vector DNA were pulse-labeled for 30 min. The initial pulse-labeled (t=0) samples were harvested, and the remaining samples were incubated with chase media for the indicated time points. After immunoprecipitation with anti-HA antibody, the samples were analyzed by SDS-PAGE and the gels were subjected to autoradiography. The relative intensity of the bands were quantified and the Vif (+) and Vif (−) samples were normalized to 1 and graphed (FIG. 8, right side). The T1/2 of APOBEC3G was 1.9 hours in the presence of Vif and 10 hours in the absence of Vif. (B) Proteasome inhibitor studies using infected H9 cells. Mock or HIV-1 wt-infected H9 cells were treated with the broadly active proteasome inhibitor epoxomicin (0.25 μM) or DMSO (0.1%) 44 hours after infection. Sixteen hours following treatment, the cells were harvested; and whole cell lysates were prepared by boiling the cells in Laemmli lysis buffer. Note that Epoxomicin caused an increase in endogenous APOBEC3G levels in the infected sample (compare lane 2 with lane 1). (C) Proteasome inhibitor studies using transiently-transfected 293T cells. Twenty-four hours following transfection of 293T cells with 0.1 μg APOBEC3G and 2 μg Vif or control vector DNA, the cells were treated with the indicated concentration of inhibitor for 15 hours. APOBEC3G-HA levels were elevated in the presence of the proteasome inhibitors MG132, ALLN, and clasto-lactacystin-β-lactone (lanes 8-11), but not in the presence of calpain inhibitor III (lane 12).

The record followed here is US7723021B2, “Methods for treating lentivirus infections” (The J. David Gladstone Institutes, priority 2003, dated 2010).

“Also recorded” adds a separate entry of the source. Residues, ends and D or L forms follow the SMILES beside them. *: point of attachment. Cbz = O=C(OCc1ccccc1)*

Take `CC(C)C[C@@H](C=O)NC(=O)[C@H](CC(C)C)NC(=O)[C@H](CC(C)C)NC(=O)OCc1ccccc1` [MG132] (Cbz-Leu-Leu-Leu-aldehyde): the “levels of APOBEC3G-HA in the presence of Vif compared to diluent control (0.1% DMSO)” value is “enhanced; also recorded: elevated”.
